# Patent US20030224416A1, “Schizophrenia related gene” (priority 2002, published 2003)
# Tested on: Kv3.1 α-subunit mRNA
# Test: Experiment 1: in situ hybridization of Kv3.1 α-subunit mRNA in brain, chronic PCP rat model of schizophrenia with antipsychotic co-treatment
# Type: in vivo
smiles,measurement,setting,value
"Cc1cc2c(s1)Nc1ccccc1N=C2N1CCN(C)CC1 [Olanzapine, olanzapine]",Kv3.1 α-subunit mRNA expression,"ACg, PCP + drug 0.3 mg/kg/day",15.83 ± 0.73 PSL/mm^2
same,Kv3.1 α-subunit mRNA expression,"ACg, PCP + drug 1 mg/kg/day",14.83 ± 1.00 PSL/mm^2
same,Kv3.1 α-subunit mRNA expression,"ACg, PCP + drug 3 mg/kg/day",16.31 ± 0.40 PSL/mm^2
same,Kv3.1 α-subunit mRNA expression,"ACg, PCP + drug 10 mg/kg/day",15.03 ± 0.72 PSL/mm^2
same,Kv3.1 α-subunit mRNA expression,"AcbC, PCP + drug 0.3 mg/kg/day",8.59 ± 0.58 PSL/mm^2
same,Kv3.1 α-subunit mRNA expression,"AcbC, PCP + drug 1 mg/kg/day",8.12 ± 0.67 PSL/mm^2
same,Kv3.1 α-subunit mRNA expression,"AcbC, PCP + drug 3 mg/kg/day",8.55 ± 0.25 PSL/mm^2
same,Kv3.1 α-subunit mRNA expression,"AcbC, PCP + drug 10 mg/kg/day",8.27 ± 0.31 PSL/mm^2
same,Kv3.1 α-subunit mRNA expression,"AcbS, PCP + drug 0.3 mg/kg/day",11.42 ± 0.73 PSL/mm^2
same,Kv3.1 α-subunit mRNA expression,"AcbS, PCP + drug 1 mg/kg/day",10.43 ± 0.56 PSL/mm^2
same,Kv3.1 α-subunit mRNA expression,"AcbS, PCP + drug 3 mg/kg/day",11.62 ± 0.84 PSL/mm^2
same,Kv3.1 α-subunit mRNA expression,"AcbS, PCP + drug 10 mg/kg/day",11.95 ± 1.02 PSL/mm^2
same,Kv3.1 α-subunit mRNA expression,"Au1, PCP + drug 0.3 mg/kg/day",18.60 ± 1.75 PSL/mm^2
same,Kv3.1 α-subunit mRNA expression,"Au1, PCP + drug 1 mg/kg/day",18.68 ± 0.80 PSL/mm^2
same,Kv3.1 α-subunit mRNA expression,"Au1, PCP + drug 3 mg/kg/day",17.42 ± 1.46 PSL/mm^2
same,Kv3.1 α-subunit mRNA expression,"Au1, PCP + drug 10 mg/kg/day",16.91 ± 0.86 PSL/mm^2
same,Kv3.1 α-subunit mRNA expression,"CA1pd, PCP + drug 0.3 mg/kg/day",19.98 ± 1.59 PSL/mm^2
same,Kv3.1 α-subunit mRNA expression,"CA1pd, PCP + drug 1 mg/kg/day",19.14 ± 2.06 PSL/mm^2
same,Kv3.1 α-subunit mRNA expression,"CA1pd, PCP + drug 3 mg/kg/day",18.37 ± 1.54 PSL/mm^2
same,Kv3.1 α-subunit mRNA expression,"CA1pd, PCP + drug 10 mg/kg/day",20.15 ± 1.22 PSL/mm^2
same,Kv3.1 α-subunit mRNA expression,"CA2pd, PCP + drug 0.3 mg/kg/day",21.36 ± 2.52 PSL/mm^2
same,Kv3.1 α-subunit mRNA expression,"CA2pd, PCP + drug 1 mg/kg/day",17.72 ± 1.86 PSL/mm^2
same,Kv3.1 α-subunit mRNA expression,"CA2pd, PCP + drug 10 mg/kg/day",20.59 ± 1.35 PSL/mm^2
same,Kv3.1 α-subunit mRNA expression,"CA3pd, PCP + drug 0.3 mg/kg/day",33.71 ± 3.48 PSL/mm^2
same,Kv3.1 α-subunit mRNA expression,"CA3pd, PCP + drug 1 mg/kg/day",30.50 ± 1.94 PSL/mm^2
same,Kv3.1 α-subunit mRNA expression,"CA3pd, PCP + drug 3 mg/kg/day",33.46 ± 2.04 PSL/mm^2
same,Kv3.1 α-subunit mRNA expression,"CA3pd, PCP + drug 10 mg/kg/day",32.81 ± 1.82 PSL/mm^2
same,Kv3.1 α-subunit mRNA expression,"DGgd, PCP + drug 0.3 mg/kg/day",35.22 ± 1.16 PSL/mm^2
same,Kv3.1 α-subunit mRNA expression,"DGgd, PCP + drug 1 mg/kg/day",33.04 PSL/mm^2
same,Kv3.1 α-subunit mRNA expression,"DGgd, PCP + drug 3 mg/kg/day",36.51 ± 1.07 PSL/mm^2
same,Kv3.1 α-subunit mRNA expression,"DGgd, PCP + drug 10 mg/kg/day",38.16 ± 1.10 PSL/mm^2
same,Kv3.1 α-subunit mRNA expression,"IL, PCP + drug 0.3 mg/kg/day",12.00 ± 0.65 PSL/mm^2
same,Kv3.1 α-subunit mRNA expression,"IL, PCP + drug 1 mg/kg/day",11.27 ± 1.08 PSL/mm^2
same,Kv3.1 α-subunit mRNA expression,"IL, PCP + drug 3 mg/kg/day",11.40 ± 0.41 PSL/mm^2
same,Kv3.1 α-subunit mRNA expression,"IL, PCP + drug 10 mg/kg/day",12.15 ± 0.62 PSL/mm^2
same,Kv3.1 α-subunit mRNA expression,"IO, PCP + drug 0.3 mg/kg/day",15.50 ± 0.51 PSL/mm^2
same,Kv3.1 α-subunit mRNA expression,"IO, PCP + drug 1 mg/kg/day",16.18 ± 0.32 PSL/mm^2
same,Kv3.1 α-subunit mRNA expression,"IO, PCP + drug 3 mg/kg/day",16.83 ± 0.79 PSL/mm^2
same,Kv3.1 α-subunit mRNA expression,"IO, PCP + drug 10 mg/kg/day",17.74 ± 0.37 PSL/mm^2
same,Kv3.1 α-subunit mRNA expression,"M1, PCP + drug 0.3 mg/kg/day",15.83 ± 0.69 PSL/mm^2
same,Kv3.1 α-subunit mRNA expression,"M1, PCP + drug 1 mg/kg/day",16.17 ± 1.27 PSL/mm^2
same,Kv3.1 α-subunit mRNA expression,"M1, PCP + drug 3 mg/kg/day",16.17 ± 0.79 PSL/mm^2
same,Kv3.1 α-subunit mRNA expression,"M1, PCP + drug 10 mg/kg/day",16.27 ± 0.37 PSL/mm^2
same,Kv3.1 α-subunit mRNA expression,"M2, PCP + drug 3 mg/kg/day",14.48 ± 0.90 PSL/mm^2
same,Kv3.1 α-subunit mRNA expression,"MG, PCP + drug 0.3 mg/kg/day",26.64 ± 2.22 PSL/mm^2
same,Kv3.1 α-subunit mRNA expression,"MM, PCP + drug 10 mg/kg/day",4.69 ± 2.24 PSL/mm^2
same,Kv3.1 α-subunit mRNA expression,"Pir, PCP + drug 0.3 mg/kg/day",37.73 ± 1.18 PSL/mm^2
same,Kv3.1 α-subunit mRNA expression,"Pir, PCP + drug 1 mg/kg/day",36.82 ± 0.51 PSL/mm^2
same,Kv3.1 α-subunit mRNA expression,"Pir, PCP + drug 3 mg/kg/day",43.78 ± 1.20 PSL/mm^2
same,Kv3.1 α-subunit mRNA expression,"Pir, PCP + drug 10 mg/kg/day",40.66 ± 2.21 PSL/mm^2
same,Kv3.1 α-subunit mRNA expression,"RSa, PCP + drug 0.3 mg/kg/day",16.53 ± 1.13 PSL/mm^2
same,Kv3.1 α-subunit mRNA expression,"RSa, PCP + drug 1 mg/kg/day",16.92 ± 0.74 PSL/mm^2
same,Kv3.1 α-subunit mRNA expression,"RSa, PCP + drug 3 mg/kg/day",18.21 ± 1.15 PSL/mm^2
same,Kv3.1 α-subunit mRNA expression,"RSa, PCP + drug 10 mg/kg/day",18.77 ± 1.07 PSL/mm^2
same,Kv3.1 α-subunit mRNA expression,"RSg, PCP + drug 0.3 mg/kg/day",19.48 ± 0.72 PSL/mm^2
same,Kv3.1 α-subunit mRNA expression,"RSg, PCP + drug 1 mg/kg/day",19.43 ± 1.20 PSL/mm^2
same,Kv3.1 α-subunit mRNA expression,"RSg, PCP + drug 3 mg/kg/day",20.96 ± 1.08 PSL/mm^2
same,Kv3.1 α-subunit mRNA expression,"RSg, PCP + drug 10 mg/kg/day",19.59 ± 0.92 PSL/mm^2
same,Kv3.1 α-subunit mRNA expression,"VMStr, PCP + drug 3 mg/kg/day",7.52 PSL/mm^2
same,Kv3.1 α-subunit mRNA expression,"VMStr, PCP + drug 10 mg/kg/day",5.99 ± 0.28 PSL/mm^2
same,Kv3.1 α-subunit mRNA expression,"VO, PCP + drug 0.3 mg/kg/day",19.03 ± 1.00 PSL/mm^2
same,Kv3.1 α-subunit mRNA expression,"VO, PCP + drug 1 mg/kg/day",18.35 ± 1.04 PSL/mm^2
same,Kv3.1 α-subunit mRNA expression,"VO, PCP + drug 3 mg/kg/day",18.96 ± 0.86 PSL/mm^2
same,Kv3.1 α-subunit mRNA expression,"VO, PCP + drug 10 mg/kg/day",19.88 ± 0.58 PSL/mm^2
same,Kv3.1 α-subunit mRNA expression,"dRt, PCP + drug 0.3 mg/kg/day",50.99 ± 2.22 PSL/mm^2
same,Kv3.1 α-subunit mRNA expression,"dRt, PCP + drug 1 mg/kg/day",50.92 ± 3.80 PSL/mm^2
same,Kv3.1 α-subunit mRNA expression,"dRt, PCP + drug 3 mg/kg/day",52.87 ± 1.95 PSL/mm^2
same,Kv3.1 α-subunit mRNA expression,"dRt, PCP + drug 10 mg/kg/day",52.42 ± 1.19 PSL/mm^2
same,Kv3.1 α-subunit mRNA expression,"vRt, PCP + drug 0.3 mg/kg/day",54.57 ± 3.12 PSL/mm^2
same,Kv3.1 α-subunit mRNA expression,"vRt, PCP + drug 1 mg/kg/day",46.70 ± 3.99 PSL/mm^2
same,Kv3.1 α-subunit mRNA expression,"vRt, PCP + drug 3 mg/kg/day",42.97 ± 2.22 PSL/mm^2
same,Kv3.1 α-subunit mRNA expression,"vRt, PCP + drug 10 mg/kg/day",53.69 ± 2.07 PSL/mm^2
